Test results from patent publication US20240131028A1, “CHEMOVACCINATION AGAINST PLASMODIUM INFECTION WITH SELECTIVE PLASMEPSIN X INHIBITORS” (Merck Sharp & Dohme LLC, priority 2021, published 2024).

Each compound was assayed on ring stage parasites (Pf) (assay: Parasite lactate dehydrogenase (LDH) growth assay (Parasite Assay, PfLDH Assay)). Conditions: Plasmodium falciparum, 72 h, Table 3; 72 hours growth, LDH readout; read-out: EC50.
Assay type: cell-based, P. falciparum

SMILES	EC50 [nM]
CC1(C)CC(=O)N([C@H](c2cccnc2)[C@H]2C[C@@H]2C(=O)NC2CC(C)(C)Oc3c(F)cc(F)cc32)C(=N)N1 (some centres unmarked) [Example 122A]	2.3
CC[C@]1(C)CC(=O)N([C@H](CCOC)[C@H]2C[C@@H]2C(=O)N[C@H]2CC(C)(C)Oc3ccc(C)cc32)C(=N)N1 [Example 123]	2
CC[C@]1(C)CC(=O)N([C@H](CCOC)[C@H]2C[C@@H]2C(=O)N[C@H]2CC(C)(C)Oc3ccc(Cl)cc32)C(=N)N1 [Example 124]	0.8
CC1(C)CC(=O)N(C[C@H]2C[C@@H]2C(=O)NC2CC(C)(C)Oc3ccc(OC(F)(F)F)cc32)C(=N)N1 (some centres unmarked) [Example 125A]	231
COCC[C@H]([C@H]1C[C@@H]1C(=O)NC1CC(C)(C)Oc2ccc(OC(F)(F)F)cc21)N1C(=N)NC(C)(C)CC1=O (some centres unmarked) [Example 126A]	4.7
Cc1ccc2c(c1)[C@@H](NC(=O)[C@H]1C[C@@H]1CN1C(=N)NC(C)(C)CC1=O)CC(C)(C)O2 [Example 128]	280
CC[C@]1(C)CC(=O)N([C@H](CCOC)[C@H]2C[C@@H]2C(=O)NC2CC(C)(C)Oc3ccc(OC(F)(F)F)cc32)C(=N)N1 (some centres unmarked) [Example 129A]	1.3
COCC[C@H]([C@H]1C[C@@H]1C(=O)NC1CC2(CCC2)Oc2ccccc21)N1C(=N)NC(C)(C)CC1=O (some centres unmarked) [Example 131A]	6.8
COCC[C@H]([C@H]1C[C@@H]1C(=O)N[C@H]1CC(C)(C)Oc2ccc(C)cc21)N1C(=N)NC(C)(C)CC1=O [Example 132]	6.7
CC1(C)CC(=O)N(C[C@H]2C[C@@H]2C(=O)N[C@H]2CC3(CCC3)Oc3ccccc32)C(=N)N1 [Example 135]	190
Cc1cc2c(cc1Cl)[C@@H](NC(=O)[C@H]1C[C@@H]1CN1C(=N)NC(C)(C)CC1=O)CC(C)(C)O2 [Example 136]	160
COCC[C@H]([C@H]1C[C@@H]1C(=O)N[C@@H]1CC(C)(C)Oc2cc(C)c(Cl)cc21)N1C(=N)NC(C)(C)CC1=O [Example 137A]	12
COCC[C@H]([C@H]1C[C@@H]1C(=O)N[C@H]1CC(C)(C)Oc2cc(C)c(Cl)cc21)N1C(=N)NC(C)(C)CC1=O [Example 137B]	6.4
COCC[C@H]([C@H]1C[C@@H]1C(=O)N[C@H]1CC(C)(C)Oc2cc(C)c(C)cc21)N1C(=N)NC(C)(C)CC1=O [Example 138A]	7.4
COCC[C@H]([C@H]1C[C@@H]1C(=O)N[C@@H]1CC(C)(C)Oc2cc(C)c(C)cc21)N1C(=N)NC(C)(C)CC1=O [Example 138B]	18
CC1C[C@H](NC(=O)[C@H]2C[C@@H]2CN2C(=N)NC(C)(C)CC2=O)c2cc(F)ccc2O1 (some centres unmarked) [Example 139A]	99
CC1(C)CC(=O)N(C[C@H]2C[C@@H]2C(=O)N[C@H]2CC(C3CC3)Oc3ccccc32)C(=N)N1 (some centres unmarked) [Example 140A]	220

Same assay, conditions: Table 3; 72 hours growth, LDH readout; read-out: EC50

SMILES	EC50 [nM]
CC1(C)CC(=O)N([C@H](c2cccnc2)[C@H]2C[C@@H]2C(=O)NC2CC(C)(C)Oc3c(F)cc(F)cc32)C(=N)N1 (some centres unmarked) [Example 122B]	2.2
CC1(C)CC(=O)N(C[C@H]2C[C@@H]2C(=O)NC2CC(C)(C)Oc3ccc(OC(F)(F)F)cc32)C(=N)N1 (some centres unmarked) [Example 125B]	160
COCC[C@H]([C@H]1C[C@@H]1C(=O)NC1CC(C)(C)Oc2ccc(OC(F)(F)F)cc21)N1C(=N)NC(C)(C)CC1=O (some centres unmarked) [Example 126B]	8.4
CC[C@]1(C)CC(=O)N([C@H](CCOC)[C@H]2C[C@@H]2C(=O)NC2CC(C)(C)Oc3ccc(OC(F)(F)F)cc32)C(=N)N1 (some centres unmarked) [Example 129B]	2.5
COCC[C@H]([C@H]1C[C@@H]1C(=O)NC1CC2(CCC2)Oc2ccccc21)N1C(=N)NC(C)(C)CC1=O (some centres unmarked) [Example 131B]	6.1
CC1C[C@H](NC(=O)[C@H]2C[C@@H]2CN2C(=N)NC(C)(C)CC2=O)c2cc(F)ccc2O1 (some centres unmarked) [Example 139B]	130
